These results are taken from ChEMBL document CHEMBL3272116, “Synthesis and evaluation of brain catecholamine depletion by N-alkyl derivatives of 6-aminodopamine” (1976).

The subject of assay [1] is Mus musculus. Put plainly: Depletion of dopamine in mouse brain at 50 ug administered intracranially at 24 hrs interval on three successive days measured 24 hrs post last dose relative to control. Type of assay: functional.
In assay [2] the test system is Mus musculus. Put plainly: Depletion of norepinephrine in mouse brain at 50 ug administered intracranially at 24 hrs interval on three successive days measured 24 hrs post last dose relative to control. Type of assay: functional.

In the case of `CN(C)CCc1cc(O)c(O)cc1N`, the Activity stood at 94% in the assay with Mus musculus [1] and 88% in the assay with Mus musculus [2].

`Br.CNCCc1cc(O)c(O)cc1N`: the Activity in the assay with Mus musculus [2] is 66%.

For the compound `NCCc1cc(O)c(O)cc1N`, the Activity in the assay with Mus musculus [1] is reported as 106%; with Mus musculus [2], 34%.

Regarding `CC(C)NCCc1cc(O)c(O)cc1N`, in the assay with Mus musculus [2], the Activity came to 81%.
